Assay results published in ChEMBL document CHEMBL1128187, “1 alpha,25-dihydroxyvitamin D3 analogs featuring aromatic and heteroaromatic rings: design, synthesis, and preliminary biological testing” (1995).

Tests used:
Assay type in all cases: functional
[1] = species: Rattus norvegicus; test: Patch clamp determination of calcium current in rat Osteosarcoma cells at 0.5 nM
[2] = species: Rattus norvegicus; test: Patch clamp determination of calcium current in rat Osteosarcoma cells at 5.0 nM
[3] = species: Rattus norvegicus; test: Patch clamp determination of calcium current in rat Osteosarcoma cells at 50.0 nM

Structure (SMILES): C[C@H](CCCC(C)(C)O)[C@H]1CC[C@H]2C(c3ccc(CO)c(CO)c3)=CCC[C@]12C
- Ca2+ current [1]: -0.08 mV
- Ca2+ current [2]: 1.45 mV
- Ca2+ current [3]: 7.03 mV

Structure (SMILES): C[C@@H](COCCCC(C)(C)O)[C@H]1CC[C@H]2C(c3ccc(CO)c(CO)c3)=CCC[C@]12C
- Ca2+ current [1]: 0.02 mV
- Ca2+ current [2]: 0.15 mV
- Ca2+ current [3]: 0.63 mV

Structure (SMILES): C=C1/C(=C\C=C2/CCC[C@]3(C)[C@@H]([C@H](C)CCCC(C)(C)O)CC[C@@H]23)C[C@@H](O)C[C@@H]1O [CALCITRIOL]
- Ca2+ current [1]: 5.73 mV
- Ca2+ current [2]: 9.79 mV
- Ca2+ current [3]: 10.2 mV
